Molecules are shown by their SMILES. Entries after “also recorded” stand apart in the source; their conditions may differ.

One test relates to PC12 cells. The test can be described thus: PC12 cell differentiation (neurite outgrowth). Format: cell-based, rat. Particulars: 3 days, peptoids 2 ng/ml to 50 μg/ml, reduced serum (0.5% FBS and 1% HS); compared with NGF 100 ng/ml. The method, then: PC 12 cell differentiation was measured by plating cells onto collagen-coated 24-wells plates. NGF (100 ng/ml) or the small chemicals at different concentrations were added and the percentage of cells with neurite processes greater than two cell bodies in length were counted after relevant treatment. For each experiment at least 300 cells were randomly measured (Burstein and Greene, 1978).
PC12 cells were maintained at 37° C. in DMEM supplemented with 2.5% FBS, 15% of Horse serum (HS) and penicillin/streptomycin in a humidified 5% CO2 incubator. The cells were grown on 60- and 100-mm tissue culture dishes (Becton Dickinson).
PC 12 cells were cultured for 3 days in the presence of the peptoids (from 2 ng/ml to 50 μg/ml) under reduced serum conditions (0.5% FBS and 1% HS).

The next test relates to RN22 cells. The experiment in a line: RN22 cell survival under CuSO4 stress (MTT). Format: cell-based, rat. Particulars: CuSO4 150 μM, 24 h, peptoids 1 ng/ml-10 μg/ml; compared with NGF 100 ng/ml. The method, then:
The library was also tested to assess their capacity to promote cell survival of myelin producing cells. To delineate p75 signalling independent of TrkA, we used a rat schwannoma cell line (RN22) expressing p75, but not TrkA, (Gentry et al., 2000).
The rat schawnnoma cell line RN22 was cultured in 5% CO2 at 37° C. in Dulbecco's modified Eagle's medium (DMEM) with 10% fetal bovine serum (FBS) and penicillin/streptomycin.
RN22 cells were plated at 20,000 cells/well on a 24-well plate in DMEM alone and after allowing the cells to adhere for 3 days, cupper sulphate (CuSO4) (150 μM) was added with or without NGF (100 ng/ml) or the peptoids N35-4-8C, N6-4-17C and N35-4-17C at different concentrations (1 ng/ml-10 μg/ml) to generate stress and cell death. After 24 h cell viability was studied by determining the amount of yellow MTT (Sigma) that was reduced to insoluble purple formazan. After removing the medium, the water-insoluble formazan was solubilised with DMSO (Sigma), and the dissolved material was measured spectrophotometrically at a wavelength of 570 nm, subtracting the background at 650 nm (Frade, 2005).

A further test concerns C57BL/6 EAE mice. The test can be described thus: Histological evaluation of brain and spinal cord in EAE mice. Format: in vivo. Particulars: 100 mg/kg. The method, then: Histological evaluation was done on paraformaldehyde-fixed, paraffin-embedded sections of brain and spinal cord. Sections 10 μm thick) were stained with hematoxylin and Luxol Fast Blue to assess inflammation and demyelination. Semiquantitative histological evaluation for inflammation and demyelination was conducted and scored blindly using the following scale: 0=normal; 1=1 to 3/section perivascular cuffs with minimal demyelination; 2=3 to 10 perivascular cuffs/section accompanied by moderate demyelination; 3=wide-spread perivascular cuffing, extensive demyelination with large confluent lesions (Villoslada et al., 2001).
Immunohistochemical procedures were performed on 10 μm paraffin-embedded sections of brain and spinal cord as described previously (Villoslada et al., 2001). Primary antibodies were added at concentrations of 1/1000 for MCA500 (rat anti-mouse CD3 from Serotec) and 1/500 for MCA1107 (rat anti-mouse CD4 from Serotec). Specificity of the immunoreaction was determined by incubating sections without the primary antibodies or using the corresponding isotype controls which yielded no immunoreactivity.

Test [1] relates to splenocytes isolated from naïve C57BL/6 mice. The test can be described thus: Splenocyte proliferation assay (MOG stimulated). The class given is cell-based. Particulars: MOG 10 μg/ml, splenocytes cultured 2 hours with compound before MOG, p<0.05. The method, then: FIG. 6 depicts effects of N35-4-8C on the peripheral immune response during EAE. […] Splenocytes were cultured for 2 hours with N35-4-8C before MOG addition. Data are means±standard error. *p<0.05 with respect to cells treated with MOG only. FIG. 6B: Gene expression profile of cytokines and inducible nitric oxide synthase (iNOS) assayed by quantitative reverse transcriptase-polymerase chain reaction (RT-PCR) in the spleen of placebo and treated animals at the end of the experiment. Data are expressed as fold change in gene expression levels in the treated groups compared with untreated controls. *p<0.05. IFN=interferon; IL=interleukin; TNF=tumor necrosis factor.
Splenocytes from naïve, non immunized C57BL/6 mice were obtained for in vitro assessment of the effect of N35-4-8C in cell proliferation. Splenocyte proliferation assay was performed as described previously (Martinez-Forero et al., 2008).

Test [2] relates to TNFα, IL2, iNOS gene expression. The experiment in a line: Cytokine and iNOS gene expression in spleen of EAE mice (quantitative RT-PCR). Format: in vivo. Particulars: end of the experiment, treated vs placebo. The method, then: Brains and spinal cords from mice obtained at the time of death were homogenized in RNA lysis buffer. Total RNA was extracted using the RNeasy Mini Kit (Qiagen, Chatwworth, Calif.) isolation system, including DNase treatment using the RNase-Free DNase Set (Quiagen). Total RNA (35 μg) was reverse transcribed using the Reverse Transcription System (High Capacity cDNA Archive Kit; Applied Biosystems, Foster City, Calif.). The real time reaction was conducted at 25° C. for 10 minutes, followed by 37° C. for 2 hours, and finally stored at 4° C. Primers and target-specific fluorescence-labeled TaqMan probes were purchased from Applied Biosystems (TaqMan Gene Expression assays). We used the TaqMan Universal Master Mix (Applied biosystems). Amplification of complementary DNA was performed on a DNA Engine Opticon 2 Real-Time System (MJ Research, Watertown, Mass.) using 0.9 μM for each primer and 0.25 μM for the probe and 20 ng complementary DNA. The reaction conditions were an initial 2 minutes at 50° C., followed by 10 minutes at 95° C. and 40 cycles of 15 seconds at 95° C. and 1 minute at 60° C. Each sample was run in triplicate, and in each plate the target and the endogenous control were amplified in different wells. The expression of the gene tested was quantified relative to the level of the housekeeping gene 18rRNA (Palacios et al., 2008).
To assess which was the effect of this compound in the peripheral immune response, the proliferative response against the immunizing antigen (MOG) in splenocytes of naïve animals and the cytokine profile in spleen cells from placebo and treated animals were evaluated. […] Gene expression of interleukin2 (IL2), Interferon γ (IFNγ), tumor necrosis factor α (TNFα), inducible nitric oxide synthase (iNOS) and interleukin 10 (IL10) was investigated by quantitative reverse transcriptase PCR at the end of the experiment in splenocytes from placebo and treated animals.

Turning to `CC(C)CCN(CC(=O)N(CCCN1CCCC1=O)CC(N)=O)C(=O)CNCCc1ccccc1F` [N35-4-8C, [N-(2-(2′-Fluorophenyl)ethyl)glycyl]-[N-(3-methylbutyl)glycyl]-N-[3-(2′-oxopyrrolidinyl)propyl]glycinamide], the “differentiation of PC12 cells” value with PC12 cells is given as “induce the differentiation of PC12 cells at different concentrations to an extent substantially comparable with that induce by NGF”. Besides, in the test with RN22 cells, the “survival of RN22 cells (cell viability, MTT)” value is “promote survival of RN22 cells”. Moreover, the “histological scores at the brain and spinal cord level” value in the test with C57BL/6 EAE mice (day 26, vs placebo, p<0.05) is on record as “significant lower histological scores”. The “demyelination areas (Luxol fast blue)” value in the test on C57BL/6 EAE mice (spinal cord, vs placebo) is “decreased”. Further, the “inflammatory infiltrates in the brain and the spinal cord” value with C57BL/6 EAE mice (vs placebo, p<0.05) is listed as “less inflammatory infiltrates”. Besides, in test [1], the “MOG specific proliferative response of splenocytes” value is listed as “significantly lower; also recorded: inhibits the proliferation of splenocytes”. Besides, in test [2], the “gene expression of IL2 in spleen” value is “significant decrease”, the “gene expression of TNFα in spleen” value is reported as “significant decrease” and the “gene expression of iNOS in spleen” value was “significant decrease”.

Source of the values: patent US20120237552A1, “Peptoid Agonists of Nerve Growth Factor and Their Use as Medicaments” (priority 2009, published 2012).
